Experimental data as given in ChEMBL document CHEMBL1201862, “PubChem BioAssay data set” (2004).
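Following 48 hours of exposure in 96-well plates, responses at five concentrations were used to interpolate endpoints linearly. GI50: concentration for 50% inhibition of growth.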 Active and inactive are the calls of the source. Cut-off read from the data, not from the text of the source: active = GI50 up to about 1.1 µM and inactive = higher.

Tests used:
Test in all cases: NCI tumour cell line growth inhibition, 48 h
[1] = system: SK-MEL-5
[2] = system: A549
[3] = system: T47D
[4] = system: EKVX
[5] = system: CCRF-CEM
[6] = system: 786-0
[7] = system: NCI-H23
[8] = system: LOX IMVI
[9] = system: TK-10
[10] = system: OVCAR-5
[11] = system: OVCAR-4
[12] = system: UO-31
[13] = system: U-251
[14] = system: HCC 2998
[15] = system: SNB-75
[16] = system: KM12
[17] = system: MDA-MB-231
[18] = system: SW-620
[19] = system: IGROV-1
[20] = system: RXF 393

Measured: GI50

Clc1c2nc3ccccc3c-2[nH]c2ccccc12
inactive: [1] 3.95 µM | [2] 34 µM | [3] 17.7 µM | [4] 10.6 µM | [5] 19.2 µM | [6] 32.5 µM | [7] 11.6 µM | [8] 11.7 µM | [9] 98.4 µM | [10] > 100 µM | [11] > 100 µM | [12] 7.98 µM | [13] 50.4 µM | [14] 24.5 µM | [15] 39.9 µM | [16] 3.94 µM | [17] 11.7 µM | [18] 8.83 µM | [19] 9.68 µM

CN1CCN(C2CC(=O)c3c(Cl)sc(Cl)c32)CC1 (stereo unspecified)
inactive: [1] 30.1 µM | [2] 21.3 µM | [3] 18.5 µM | [4] 23.9 µM | [5] 3.45 µM | [6] 7.21 µM | [7] 9.12 µM | [8] 1.8 µM | [9] 29 µM | [10] 27.7 µM | [11] 14.6 µM | [12] 7.6 µM | [13] 11.3 µM | [14] 8.87 µM | [15] 14.7 µM | [16] 10.8 µM | [17] 20 µM | [18] 7.94 µM | [19] 8.69 µM

c1cc2c(c(-c3c4ccccc4nc4ccccc34)c1)CC1(CC2)OCCO1
inactive: [1] > 100 µM | [2] > 100 µM | [3] > 100 µM | [4] > 100 µM | [6] > 100 µM | [7] > 100 µM | [8] > 100 µM | [9] > 100 µM | [10] > 100 µM | [11] > 100 µM | [12] > 100 µM | [13] > 100 µM | [14] > 100 µM | [15] > 100 µM | [16] > 100 µM | [17] > 100 µM | [20] > 100 µM | [18] > 100 µM | [19] > 100 µM

CS(=O)(=O)OC1CN2CCC1CC2 (stereo unspecified)
inactive: [1] > 100 µM | [2] > 100 µM | [3] > 100 µM | [4] > 100 µM | [5] > 100 µM | [6] > 100 µM | [7] > 100 µM | [8] > 100 µM | [9] > 100 µM | [10] > 100 µM | [11] > 100 µM | [12] > 100 µM | [13] > 100 µM | [15] > 100 µM | [16] > 100 µM | [17] > 100 µM | [20] > 100 µM | [18] > 100 µM | [19] > 100 µM

CC(=O)Oc1ccc2cc(Oc3ccccc3)c(=O)oc2c1
inactive: [1] 50.4 µM | [2] 48.2 µM | [3] 36.1 µM | [4] > 100 µM | [6] > 100 µM | [7] > 100 µM | [8] 58.2 µM | [9] 64.6 µM | [10] > 100 µM | [11] 76.9 µM | [12] 61 µM | [13] 69.7 µM | [14] > 100 µM | [15] 90.6 µM | [16] > 100 µM | [17] > 100 µM | [20] > 100 µM | [18] > 100 µM | [19] > 100 µM

COc1c(-c2ccc(O)c(O)c2)oc2c(O)c(O)cc(O)c2c1=O
inactive: [1] 45.4 µM | [2] 69.2 µM | [3] 67 µM | [4] > 100 µM | [5] 29.2 µM | [6] 67.5 µM | [7] 60.3 µM | [8] 15.2 µM | [9] > 100 µM | [10] > 100 µM | [11] 50.6 µM | [12] > 100 µM | [13] 34.8 µM | [14] > 100 µM | [16] 66.5 µM | [17] > 100 µM | [18] 22.5 µM | [19] 24.7 µM

CCCCNS(=O)(=O)c1n[nH]c(=O)[nH]c1=O
inactive: [1] > 100 µM | [2] > 100 µM | [3] > 100 µM | [4] > 100 µM | [5] 14.1 µM | [6] > 100 µM | [7] > 100 µM | [8] > 100 µM | [10] > 100 µM | [11] > 100 µM | [12] > 100 µM | [13] > 100 µM | [15] 82.6 µM | [16] > 100 µM | [17] > 100 µM | [20] > 100 µM | [18] > 100 µM | [19] > 100 µM

O=C(O)CCC(NC(=O)c1ccc(Nc2nc3ccccc3nc2C(=O)O)cc1)C(=O)O (stereo unspecified)
inactive: [1] > 100 µM | [2] > 100 µM | [3] > 100 µM | [4] > 100 µM | [5] > 100 µM | [6] > 100 µM | [7] > 100 µM | [9] > 100 µM | [10] > 100 µM | [11] > 100 µM | [12] > 100 µM | [13] > 100 µM | [14] > 100 µM | [15] > 100 µM | [16] > 100 µM | [17] > 100 µM | [19] > 100 µM

COc1cccc(/N=N/C(=N\NC(=O)c2ccc(C)cc2)c2ccc(N(CCC#N)CCC#N)cc2C)c1
inactive: [1] > 100 µM | [2] > 100 µM | [3] 41.1 µM | [4] 66.5 µM | [6] > 100 µM | [7] > 100 µM | [8] > 100 µM | [9] > 100 µM | [10] > 100 µM | [11] 25.1 µM | [12] 59.8 µM | [13] > 100 µM | [14] > 100 µM | [15] 53.1 µM | [16] 73.5 µM | [17] 63.1 µM | [20] 74.5 µM | [18] > 100 µM | [19] > 100 µM

N=C(N)SCCON1C(=O)c2ccccc2C1=O
inactive: [1] > 100 µM | [2] > 100 µM | [3] > 100 µM | [4] > 100 µM | [5] > 100 µM | [6] > 100 µM | [7] > 100 µM | [8] > 100 µM | [9] > 100 µM | [10] > 100 µM | [11] > 100 µM | [12] > 100 µM | [13] > 100 µM | [15] > 100 µM | [16] > 100 µM | [17] > 100 µM | [20] > 100 µM | [18] > 100 µM | [19] > 100 µM

O=[N+]([O-])c1ccc2nc3ccccc3cc2c1
inactive: [1] 3.1 µM | [2] 2.5 µM | [3] 3.63 µM | [4] 5.31 µM | [6] 2.38 µM | [7] 2.28 µM | [8] 2.04 µM | [9] 1.64 µM | [10] 2.48 µM | [11] 2.48 µM | [12] 3.4 µM | [13] 2.69 µM | [14] 1.63 µM | [15] 3.7 µM | [17] 2.55 µM | [20] 13.8 µM | [18] 1.85 µM | [19] 1.91 µM

Cc1ccc(C)c(N2C(=O)C(=O)c3c(C)ccc(C)c32)c1
inactive: [1] 14.8 µM | [2] 25.7 µM | [3] 11.6 µM | [4] 60.7 µM | [6] 29.3 µM | [7] 21 µM | [8] 17.4 µM | [9] 28.8 µM | [10] 57.1 µM | [11] 18.8 µM | [12] 22.9 µM | [13] 17.2 µM | [15] 34.9 µM | [16] 24.5 µM | [17] 16.9 µM | [20] 49.7 µM | [18] 27.7 µM | [19] 15.3 µM

CC(NC(=O)OCc1ccccc1)NC(=O)C(CC(=O)OC(C)(C)C)NC(=O)OC(C)(C)C (stereo unspecified)
inactive: [1] > 100 µM | [2] > 100 µM | [3] > 100 µM | [4] > 100 µM | [5] > 100 µM | [6] > 100 µM | [7] > 100 µM | [8] > 100 µM | [9] > 100 µM | [10] > 100 µM | [11] > 100 µM | [12] > 100 µM | [13] > 100 µM | [15] > 100 µM | [16] > 100 µM | [17] > 100 µM | [20] > 100 µM | [18] > 100 µM | [19] > 100 µM

C[C@@]12C[C@@H](c3ccccc3O1)N1CCSC1=N2
inactive: [1] > 100 µM | [3] > 100 µM | [4] > 100 µM | [6] > 100 µM | [7] > 100 µM | [8] > 100 µM | [9] > 100 µM | [10] > 100 µM | [11] > 100 µM | [12] > 100 µM | [13] > 100 µM | [14] > 100 µM | [15] > 100 µM | [16] > 100 µM | [17] > 100 µM | [20] > 100 µM | [18] > 100 µM | [19] > 100 µM

c1ccc2c(c1)OC(N1CCCC1)c1cnc(N3CCCC3)nc1-2 (stereo unspecified)
inactive: [2] 43.4 µM | [3] 22.5 µM | [4] 19.4 µM | [5] 23.8 µM | [6] 40.3 µM | [7] 37 µM | [8] 45.9 µM | [9] 49.2 µM | [10] 76 µM | [11] 36.2 µM | [12] 24.3 µM | [13] 45.9 µM | [15] 15.2 µM | [16] 41.3 µM | [17] 41.8 µM | [20] 20.3 µM | [18] 36.3 µM
